Experimental data reported in patent publication US20110300529A1, “DETECTION OF IFI16 IN BODY FLUIDS” (NoToPharm srl, priority 2008, published 2011).

Legend:
[1] = system: Human Keratinocyte monolayers; test: Western blot analysis of extracellular IFI16 in supernatants of cells undergoing cell death; format: cell-based; details: 16 h after treatment, TCA-concentrated supernatant, immunoblotting
Method: (§1) Human Keratinocyte monolayers were UVB-irradiated at different doses (200, 400, and 800 J/m^2 respectively), treated with 2 μM Doxorubicin (Doxo) and 80 μM Etoposide (VP-16), or left untreated. At 16 h after treatment, the supernatant was collected and separated for determination of extracellular IFI16, while the remaining cells were lysed for determination of the intracellular cleaved form of PARP (determination of undergoing cell death). Collected supernatants were concentrated with TCA 25% as described in Example 4. […]
Supernatants of human primary keratinocytes cultured in serum-free medium (Epilife, Cascade Biologics, USA) were subjected to precipitation with trichloroacetic acid (TCA). Precipitated protein were analyzed by immunoblotting. […]
(§2) Migrated proteins were transferred to nitrocellulose. The membranes were blocked in TBS/0.05% Tween20/5% BSA and extracellular IFI16 was detected by incubation of the membrane bearing surnatants samples with anti-IFI16 mouse monoclonal antibody (clone 1G7, Santa Cruz, Calif., USA). The intracellular cleaved form of PARP was detected by incubation of the membrane bearing cell extract samples by rabbit anti-PARP cleaved antibody (GTX24830, GeneTex, CA, USA). […]

[2] = system: Human Keratinocyte monolayers; test: Intracellular cleaved form of PARP (determination of undergoing cell death) by immunoblotting; format: cell-based; details: 16 h after treatment, cell lysate
Method: as §1, with “4. An equal amount of total cellular protein per sample and an equal volume of concentrated supernatants were fractionated on SDS-PAGE (7.5% of NEXT GEL Amresco, OH, USA) and transferred to a nitrocellulose membrane (Biorad, CA, USA).” for “4.”
As control of the undergoing cell death induced by the treatment with UVB-irradiation and Doxo or VP-16, also the intracellular PARP cleavage was determined in the exposed keratinocyte. […]
as §2

Compound	presence of extracellular IFI16 in supernatants ([1]; 80 μM Etoposide)	cell death as demonstrated by PARP cleavage ([2]; 80 μM Etoposide)	presence of extracellular IFI16 in supernatants ([1]; 2 μM Doxorubicin)	cell death as demonstrated by PARP cleavage ([2]; 2 μM Doxorubicin)
COc1cc([C@@H]2c3cc4c(cc3[C@@H](O[C@@H]3O[C@@H]5CO[C@@H](C)O[C@H]5[C@H](O)[C@H]3O)[C@H]3COC(=O)[C@H]23)OCO4)cc(OC)c1O [Etoposide]	not observed	chemically-induced cell death	–	–
COc1cccc2c1C(=O)c1c(O)c3c(c(O)c1C2=O)C[C@@](O)(C(=O)CO)C[C@@H]3O[C@H]1C[C@H](N)[C@H](O)[C@H](C)O1 [Doxorubicin]	–	–	not observed	chemically-induced cell death
